Results on 32 substances are retold here after patent US12037583B2, “Compositions and methods for immunooncology” (Novartis AG, priority 2015, dated 2024).

One data set concerns TRAC locus. The data set can be described thus: Genomic editing of the TRAC locus in primary human CD3+ T cells by RNP electroporation (NGS: % indels, % frameshift edits, indel pattern).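 As to all read-outs here: total edit is the insertion or deletion frequency at TRAC, and the frameshift value is the share of those indels that shift the coding frame.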 It is filed as cell-based. The following applies: dgRNA/Cas9 RNP by electroporation, target TRAC; for mean FS edit (%): frameshift edits in primary human CD3+ T cells; for mean total % edit: primary human CD3+ T cells, mean of at least 3 experiments.

In a further data set the test system is TRAC. The data set can be described thus: Editing of TRAC by dgRNAs in HEK cells stably expressing Cas9 (NGS). Conditions: dgRNA delivered to HEK cells stably expressing Cas9, target TRAC, mean of at least 3 experiments. The format is cell-based, human.
The test system of the next data set is PDCD1. The data set can be described thus: NGS editing of PDCD1 by dgRNA in HEK cells stably expressing Cas9.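 Also: dgRNA lipofected into Cas9-expressing HEK cells, lysed after 24 h, target amplicon sequenced, editing = reads carrying insertions or deletions as percent of all reads including wild type.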 It is filed as cell-based, human. Conditions: at least 3 experiments.

From the text for PDCD1: Transfection of Cas9GFP-expressing HEK293 cells (HEK-293_Cas9GFP) was used for primary screening of target specific crRNAs. […] Selected crRNAs were chemically synthesized and delivered in a 96 well format. HEK-293-Cas9GFP cells were transfected with target crRNAs comprising a flagpole region of SEQ ID NO: 6607 in a 1:1 ratio with stock trRNA of SEQ ID NO: 6660. The transfection was mediated using lipofection technology according to manufacturer's protocol (DharmaFECT Duo, GE LifeSciences; or RNAiMax, LifeTechnologies). Transfected cells were lysed 24 h following lipofection and editing (e.g., cleavage) was detected within lysates with the T7E1 assay and/or next generation sequencing (NGS; below).
PCR primers were first designed around the target site, and the genomic area of interest PCR amplified. Additional PCR was performed according to manufacturer's protocols (Illumina) to add the necessary chemistry for sequencing. The amplicons were then sequenced on an Illumina MiSeq instrument. The reads were then aligned to the human reference genome (e.g., hg38) after eliminating those having low quality scores. From the resulting files containing the reads mapped to the reference genome (BAM files), reads which overlap the target region of interest were selected and the number of wild type reads versus the number of reads which contain an insertion or deletion was calculated. The editing percentage was then defined as the total number of reads with insertions or deletions over the total number of reads, including wild type. To determine the pattern of insertions and/or deletions that resulted from the edit, the aligned reads with indels were selected and the number of a reads with a given indel were summed.
Editing of CRISPR systems containing dgRNA molecules comprising targeting domains to sequences of PDCD1 were tested for editing in HEK (gRNA delivered to cells stably expressing Cas9) and CD3+ T cells (gRNA and Cas9 delivered as RNP) according to the methods described herein.
All mean editing % are as measured by NGS and are based on at least 3 experiments.
From the text for TRAC locus: FIG. 12: Mean (n≥3) editing of CRISPR systems with dgRNAs as indicated to TRAC in HEK cells (stably expressing Cas9) or primary human CD3+ T cells (delivery of dgRNA:Cas9 RNP by electroporation).
FIG. 33C: Genomic editing of the TRAC locus resulting from human primary T cell electroporation with RNP containing the indicated gRNA targeting the TRAC locus is shown. The frequency of insertions or deletions is indicated (% indels) and the percentage of these edits that result in frameshifting of the coding sequence is shown (% frameshift edits).
Data for each experiment are the average from triplicate PCR products.

“AAAGCUGCCCUUACCUGGGC (chemistry not given here; listed as Homo sapiens) [CR000976]”: in the data set on TRAC locus, the “mean FS edit (%)” value is 1.7% and the “mean total % edit” value is reported as 1.8%. Further, the mean % edit with TRAC is 2.8%. Consider “AACAAAUGUGUCACAAAGUA (chemistry not given here; listed as Homo sapiens) [CR000966]”, for which, in the data set with TRAC locus, the “mean FS edit (%)” value turned out to be 21.0% and the “mean total % edit” value amounted to 22.0%. This substance also came in with a mean % edit in the data set on TRAC of 65.2%. Take “AACGAGAAUCAUCUGCCUGC (chemistry not given here; listed as Homo sapiens) [CR000945]”: in the data set on TRAC locus, the “mean FS edit (%)” value turned out to be 2.2% and the “mean total % edit” value is 2.3%. The substance further had a mean % edit in the data set on TRAC of 32.3%. As to “AAGGUUCAGAUCAGAAGAGG (chemistry not given here; listed as Homo sapiens) [CR000921]”, in the data set with TRAC locus, the “mean FS edit (%)” value is on record as 11.3% and the “mean total % edit” value is given as 12.7%. Further, in the data set with TRAC, the mean % edit was 58.3%. The matching figures for “ACAAGUGCCCACAGGAAGCC (chemistry not given here; listed as Homo sapiens) [CR000930]”: 7.1%, 9.9% and 12.2%. The matching figures for “ACCAACUCACACAUACAGCC (chemistry not given here; listed as Homo sapiens) [CR000949]”: 2.5%, 2.5% and 30.2%.

Substance “ACCAGAGAUGUCUGUGCAGG (targeting domain within guide RNA, chemistry not given here, further chemistry not given here; listed as Homo sapiens) [CR000935]” showed a mean % edit in the data set on TRAC of 54.2%. Regarding “ACCCGGCCACUUUCAGGAGG (chemistry not given here; listed as Homo sapiens) [CR000989]”, in the data set on TRAC locus, the “mean FS edit (%)” value stood at 18.2% and the “mean total % edit” value was 28.2%. The mean % edit in the data set with TRAC is listed as 54.5%. Turning to “AGAGCAACAGUGCUGUGGCC (chemistry not given here; listed as Homo sapiens) [CR000970]”, in the data set with TRAC locus, the “mean FS edit (%)” value was 9.3% and the “mean total % edit” value worked out at 10.9%. The mean % edit in the data set on TRAC was 13.4%. Regarding “AGAGUGAUUAUUAUUUAUUC (chemistry not given here; listed as Homo sapiens) [CR000941]”, in the data set with TRAC locus, the “mean FS edit (%)” value was 7.6% and the “mean total % edit” value is listed as 9.6%. In the data set on TRAC, the mean % edit is 33.4%. As for “AGCAGCUUUCACCUCCUUGG (chemistry not given here; listed as Homo sapiens) [CR001009]”, in the data set with TRAC locus, the “mean FS edit (%)” value is 22.8% and the “mean total % edit” value came to 27.3%. For the same substance, the mean % edit in the data set on TRAC turned out to be 65.3%. For “AGGAAGGAGCGAGGGAGCAC (chemistry not given here; listed as Homo sapiens) [CR000996]”, in the data set with TRAC locus, the “mean FS edit (%)” value came to 8.6% and the “mean total % edit” value turned out to be 11.1%. In the data set with TRAC, this substance displayed a mean % edit of 52.3%. “CR000889: dgRNA targeting domain to PDCD1 (guide CUCUCUUUGAUCUGCGCCUU; targeting domain within dual guide RNA, chemistry not given here, further chemistry not given here; listed as Homo sapiens)”: in the data set on PDCD1, the “HEK (NGS) % Editing Mean” value turned out to be 3%. The same measure, in the same setting: under “CR000890: dgRNA targeting domain to PDCD1 (guide GCUCUCUUUGAUCUGCGCCU; targeting domain within dual guide RNA, chemistry not given here, further chemistry not given here; listed as Homo sapiens)” stands 5%; under “CR000891: dgRNA targeting domain to PDCD1 (guide CGCAGAUCAAAGAGAGCCUG; targeting domain within dual guide RNA, chemistry not given here, further chemistry not given here; listed as Homo sapiens)”, 29%. For the substance “CR000892: dgRNA targeting domain to PDCD1 (guide GCAGAUCAAAGAGAGCCUGC; targeting domain within dual guide RNA, chemistry not given here, further chemistry not given here; listed as Homo sapiens)”, in the data set with PDCD1, the “HEK (NGS) % Editing Mean” value is 45%.

Turning to “CR000893: dgRNA targeting domain to PDCD1 (guide AGAGCCUGCGGGCAGAGCUC; targeting domain within dual guide RNA, chemistry not given here, further chemistry not given here; listed as Homo sapiens)”, in the data set with PDCD1, the “HEK (NGS) % Editing Mean” value was 10%.

Take “CR000894: dgRNA targeting domain to PDCD1 (guide AGGGUUUGGAACUGGCCGGC; targeting domain within dual guide RNA, chemistry not given here, further chemistry not given here; listed as Homo sapiens)”: the “HEK (NGS) % Editing Mean” value in the data set with PDCD1 was 19%. The same measure, in the same setting: under “CR000895: dgRNA targeting domain to PDCD1 (guide CACCAGGGUUUGGAACUGGC; targeting domain within dual guide RNA, chemistry not given here, further chemistry not given here; listed as Homo sapiens)” stands 49%; under “CR000896: dgRNA targeting domain to PDCD1 (guide CGGCCAGUUCCAAACCCUGG; targeting domain within dual guide RNA, chemistry not given here, further chemistry not given here; listed as Homo sapiens)”, 42%. Regarding “CR000897: dgRNA targeting domain to PDCD1 (guide CAACCACCAGGGUUUGGAAC; targeting domain within dual guide RNA, chemistry not given here, further chemistry not given here; listed as Homo sapiens)”, the “HEK (NGS) % Editing Mean” value in the data set on PDCD1 was 26%.

“CR000898: dgRNA targeting domain to PDCD1 (guide CAGUUCCAAACCCUGGUGGU; targeting domain within dual guide RNA, chemistry not given here, further chemistry not given here; listed as Homo sapiens)”: the “HEK (NGS) % Editing Mean” value in the data set on PDCD1 is recorded as 11%. For “CR000899: dgRNA targeting domain to PDCD1 (guide CGACACCAACCACCAGGGUU; targeting domain within dual guide RNA, chemistry not given here, further chemistry not given here; listed as Homo sapiens)”, in the data set with PDCD1, the “HEK (NGS) % Editing Mean” value is 5%. As to “CR000903: dgRNA targeting domain to PDCD1 (guide CGCCCACGACACCAACCACC; targeting domain within dual guide RNA, chemistry not given here, further chemistry not given here; listed as Homo sapiens)”, the “HEK (NGS) % Editing Mean” value with PDCD1 was 54%. For the substance “CR000904: dgRNA targeting domain to PDCD1 (guide CUGGUGGUUGGUGUCGUGGG; targeting domain within dual guide RNA, chemistry not given here, further chemistry not given here; listed as Homo sapiens)”, the “HEK (NGS) % Editing Mean” value in the data set with PDCD1 is recorded as 70%. Consider “CR000914: dgRNA targeting domain to PDCD1 (guide CUGCAGGGACAAUAGGAGCC; targeting domain within dual guide RNA, chemistry not given here, further chemistry not given here; listed as Homo sapiens)”, for which the “HEK (NGS) % Editing Mean” value in the data set with PDCD1 is recorded as 5%.

For the substance “CR000915: dgRNA targeting domain to PDCD1 (guide ACAAUAGGAGCCAGGCGCAC; targeting domain within dual guide RNA, chemistry not given here, further chemistry not given here; listed as Homo sapiens)”, the “HEK (NGS) % Editing Mean” value with PDCD1 amounted to 35%. Regarding “CR000916: dgRNA targeting domain to PDCD1 (guide CAGGGGCUGGCCGGUGCGCC; targeting domain within dual guide RNA, chemistry not given here, further chemistry not given here; listed as Homo sapiens)”, the “HEK (NGS) % Editing Mean” value in the data set with PDCD1 is 5%. As to “CR000917: dgRNA targeting domain to PDCD1 (guide AAAAGAGUGAGACUCACCAG; targeting domain within dual guide RNA, chemistry not given here, further chemistry not given here; listed as Homo sapiens)”, in the data set with PDCD1, the “HEK (NGS) % Editing Mean” value worked out at 43%. On the same count and under the same terms, then “CR000918: dgRNA targeting domain to PDCD1 (guide GAAAAGAGUGAGACUCACCA; targeting domain within dual guide RNA, chemistry not given here, further chemistry not given here; listed as Homo sapiens)”, with 50%. With “CR000919: dgRNA targeting domain to PDCD1 (guide GGAAAAGAGUGAGACUCACC; targeting domain within dual guide RNA, chemistry not given here, further chemistry not given here; listed as Homo sapiens)”, in the data set on PDCD1, the “HEK (NGS) % Editing Mean” value is 42%. In the case of “GCCUCCUGCACAGACAUCUC (targeting domain within guide RNA, chemistry not given here, further chemistry not given here; listed as Homo sapiens) [CR000936]”, in the data set with TRAC, the mean % edit is listed as 59.7%.
